“And” between values parts separate entries of the source, which are not always exact repeats. Equal entries are not always repeated.
Columns and labels:
[1] = target: bile salt export pump (BSEP) (Homo sapiens, UniProt O95342); test: In vitro inhibition of BSEP activity; assay type: in vitro ADME
[2] = target: T1, breast cancer resistance protein (BCRP) (Homo sapiens, UniProt Q9UNQ0); test: In vitro inhibition of BCRP activity; assay type: in vitro ADME
T1 sequence (Q9UNQ0 1-655): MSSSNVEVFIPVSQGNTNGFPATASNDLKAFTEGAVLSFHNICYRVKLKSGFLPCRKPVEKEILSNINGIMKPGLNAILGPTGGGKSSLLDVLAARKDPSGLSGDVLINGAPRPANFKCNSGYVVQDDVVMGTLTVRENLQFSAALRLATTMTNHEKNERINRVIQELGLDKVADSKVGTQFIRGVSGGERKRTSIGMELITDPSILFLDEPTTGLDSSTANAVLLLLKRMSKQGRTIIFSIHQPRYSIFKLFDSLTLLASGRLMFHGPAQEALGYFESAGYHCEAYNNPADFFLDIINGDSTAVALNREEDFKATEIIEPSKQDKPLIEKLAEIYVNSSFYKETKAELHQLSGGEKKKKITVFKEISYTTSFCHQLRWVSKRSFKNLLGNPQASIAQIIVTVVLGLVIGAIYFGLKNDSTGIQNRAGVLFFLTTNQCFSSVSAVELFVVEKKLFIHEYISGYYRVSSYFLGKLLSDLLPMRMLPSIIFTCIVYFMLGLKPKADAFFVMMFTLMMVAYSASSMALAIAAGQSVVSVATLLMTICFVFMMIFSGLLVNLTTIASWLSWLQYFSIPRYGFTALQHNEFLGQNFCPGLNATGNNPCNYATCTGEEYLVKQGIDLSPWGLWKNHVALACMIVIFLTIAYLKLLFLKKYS

[3] = system: CYP1A2; test: In vitro enzyme activity / mRNA induction in human hepatocytes; assay type: in vitro ADME
[4] = target: T2, MATE1 (Homo sapiens, UniProt Q96FL8); test: In vitro inhibition of MATE1 transporter; assay type: in vitro ADME
T2 sequence (Q96FL8 1-570): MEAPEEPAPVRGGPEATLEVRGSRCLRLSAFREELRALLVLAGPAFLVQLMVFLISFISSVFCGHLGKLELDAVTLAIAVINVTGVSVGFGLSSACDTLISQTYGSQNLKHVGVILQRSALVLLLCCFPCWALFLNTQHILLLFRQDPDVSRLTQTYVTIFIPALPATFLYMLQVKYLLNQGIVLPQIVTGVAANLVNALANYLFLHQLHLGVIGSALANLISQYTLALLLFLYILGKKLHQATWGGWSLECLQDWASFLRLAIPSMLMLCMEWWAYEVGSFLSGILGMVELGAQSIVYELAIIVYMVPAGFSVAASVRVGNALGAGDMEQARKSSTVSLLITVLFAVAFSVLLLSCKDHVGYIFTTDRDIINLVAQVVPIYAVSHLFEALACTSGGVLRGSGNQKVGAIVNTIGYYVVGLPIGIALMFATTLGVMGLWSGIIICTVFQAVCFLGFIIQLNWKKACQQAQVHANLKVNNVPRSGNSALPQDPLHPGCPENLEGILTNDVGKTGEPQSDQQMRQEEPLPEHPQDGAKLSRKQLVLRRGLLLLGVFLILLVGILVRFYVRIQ

[5] = target: CYP3A4 (Homo sapiens, UniProt P08684); test: Ki determination in pooled human liver microsomes, midazolam 1'-hydroxylase (Example 5); assay type: in vitro ADME
Protocol: The objective of this study was to evaluate in vitro the Ki of tucatinib of the following human hepatic cytochrome P450 (CYP) enzymes (CYP2C8, CYP2C9, and CYP3A4) and UGT1A1. […] Pooled human liver microsomes (HLM) from 150 individuals (79 males and 71 females) were obtained from BioreclamationIVT (Baltimore, Md.) and stored at approximately −70° C. The microsomes were characterized by the supplier for total protein and selected cytochrome P450 activities. […] The final organic solvent contribution was ≤1%. Incubations were terminated by the addition of chilled acetonitrile containing a stable isotope-labeled internal standard. […] Samples were analyzed by liquid chromatography with tandem mass spectrometry (LC-MS/MS). Analyte concentrations were quantified by LC-MS/MS and interpolated from standard curves of authentic analyte. […] Activities were calculated based on analyte concentration, incubation time, and protein concentration. Enzymatic activity (pmol/minute/mg protein) was expressed as the formation of the analyte per final protein concentration per incubation time. Activity remaining was expressed as the enzymatic activity at each concentration point of the test article normalized by the solvent control mean activity. […]

[6] = target: T2, MATE1; test: Inhibition of MATE1 mediated transport of creatinine in transfected MDCK-II cells (Example 3); assay type: in vitro ADME; parameters: expressed in transfected cells; host or cells: MDCK-II; conditions: probe substrate creatinine
Protocol: OAT2, OCT2, OCT3, MATE1, and MATE2-K are the renal transporters identified to transport creatinine.
For this study, MDCK-II were maintained in DMEM with low glucose and 10% FBS. Cells were seeded at 60K±10K cells/well on 96-well, transwell membrane plates approximately 24 hours before transfection. Transport assays were carried out approximately 48 hours after transfection. Cells were transfected and treated to express the transporter of interest or treated with a control vector. The transport of creatinine was determined by radiometric detection.
Net transporter mediated uptake of the substrate by each transporter was calculated as follows: Net Transporter Mediated Substrate Uptake (pmol/min/cm^2)=(Cellular accumulation in the presence of the transporter)−(Mean cellular accumulation in the absence of the transporter.
Percent inhibition was calculated as follows: Percent inhibition=100−(100*(transporter mediated uptake)with inhibition/(transporter mediated uptake)without inhibition)
The following equation was used to determine IC50 values of uptake assays: […]

[7] = system: MATE1/2K; test: Phase 1 drug-drug interaction study: effect of tucatinib on metformin pharmacokinetics (Example 1); conditions: healthy subjects, tucatinib 300 mg bid
[8] = system: CYP3A4 and CYP2C8; test: Example 2 Part B: effect of inducer rifampin on PK of tucatinib; assay type: in vivo, human; conditions: tucatinib 300 mg single dose in combination with rifampin vs tucatinib alone
Protocol: They were discharged on Day 12 after completion of the in-patient assessments. […] On Day 3 through Day 11, each subject received single oral doses of 600 mg of rifampin once daily (QD). On Day 10, each subject received a single oral dose of 300 mg of tucatinib. […] Other noncompartmental PK parameters may be reported. Additionally, blood samples were collected for determination of trough levels of rifampin prior to morning dosing on the days indicated in FIG. 6.

Sequence of CYP3A4 (P08684 whole entry): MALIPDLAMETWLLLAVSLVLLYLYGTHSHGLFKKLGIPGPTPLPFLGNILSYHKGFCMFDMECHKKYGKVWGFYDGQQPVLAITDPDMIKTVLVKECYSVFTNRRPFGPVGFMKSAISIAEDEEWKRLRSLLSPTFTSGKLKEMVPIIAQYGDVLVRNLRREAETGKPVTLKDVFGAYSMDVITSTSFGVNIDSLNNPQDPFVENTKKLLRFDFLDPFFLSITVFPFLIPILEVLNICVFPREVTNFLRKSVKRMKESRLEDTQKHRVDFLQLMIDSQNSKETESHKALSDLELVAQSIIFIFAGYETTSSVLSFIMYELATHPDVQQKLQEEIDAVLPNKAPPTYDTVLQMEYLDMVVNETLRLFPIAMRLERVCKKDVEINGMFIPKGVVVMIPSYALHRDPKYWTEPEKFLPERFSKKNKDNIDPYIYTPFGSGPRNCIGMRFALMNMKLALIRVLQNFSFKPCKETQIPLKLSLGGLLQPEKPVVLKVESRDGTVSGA
Sequence of bile salt export pump (BSEP) (O95342 whole entry, species assumed): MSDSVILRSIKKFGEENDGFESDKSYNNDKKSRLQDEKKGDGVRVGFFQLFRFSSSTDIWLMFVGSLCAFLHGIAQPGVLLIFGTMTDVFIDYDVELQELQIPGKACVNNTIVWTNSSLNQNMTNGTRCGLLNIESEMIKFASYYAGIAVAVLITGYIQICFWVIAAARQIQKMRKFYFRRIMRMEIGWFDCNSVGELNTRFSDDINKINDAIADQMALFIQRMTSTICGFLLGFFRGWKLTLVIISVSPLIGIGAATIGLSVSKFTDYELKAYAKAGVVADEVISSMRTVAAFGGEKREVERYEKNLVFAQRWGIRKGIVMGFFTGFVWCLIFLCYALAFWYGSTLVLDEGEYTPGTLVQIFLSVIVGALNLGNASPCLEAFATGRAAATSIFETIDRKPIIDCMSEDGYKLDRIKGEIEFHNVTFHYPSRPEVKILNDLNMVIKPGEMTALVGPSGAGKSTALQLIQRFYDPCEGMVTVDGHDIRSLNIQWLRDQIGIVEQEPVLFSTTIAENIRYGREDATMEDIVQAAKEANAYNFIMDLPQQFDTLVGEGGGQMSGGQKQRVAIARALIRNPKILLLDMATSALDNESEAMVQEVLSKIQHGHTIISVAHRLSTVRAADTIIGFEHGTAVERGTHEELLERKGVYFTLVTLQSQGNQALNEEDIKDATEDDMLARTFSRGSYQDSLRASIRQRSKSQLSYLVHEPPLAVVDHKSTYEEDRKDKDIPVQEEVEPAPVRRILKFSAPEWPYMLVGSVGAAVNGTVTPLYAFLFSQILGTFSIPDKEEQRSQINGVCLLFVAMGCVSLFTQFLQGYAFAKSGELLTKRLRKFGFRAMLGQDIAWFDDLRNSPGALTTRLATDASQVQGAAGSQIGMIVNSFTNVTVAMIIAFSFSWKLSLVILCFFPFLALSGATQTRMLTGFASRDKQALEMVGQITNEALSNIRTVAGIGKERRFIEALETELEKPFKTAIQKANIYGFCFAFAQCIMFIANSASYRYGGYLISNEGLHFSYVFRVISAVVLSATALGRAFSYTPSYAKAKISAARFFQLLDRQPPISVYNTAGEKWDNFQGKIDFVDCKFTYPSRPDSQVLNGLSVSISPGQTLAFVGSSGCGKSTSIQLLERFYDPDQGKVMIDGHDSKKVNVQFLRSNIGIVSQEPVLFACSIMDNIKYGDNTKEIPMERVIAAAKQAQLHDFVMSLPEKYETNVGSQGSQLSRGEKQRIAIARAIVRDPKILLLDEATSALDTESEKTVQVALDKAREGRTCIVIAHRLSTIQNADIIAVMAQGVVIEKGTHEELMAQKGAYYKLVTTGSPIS

SMILES: Cc1cc(Nc2ncnc3ccc(NC4=NC(C)(C)CO4)cc23)ccc1Oc1ccn2ncnc2c1 [tucatinib]
- IC50 [1]: 8480 nM
- IC50 [2]: 8980 nM
- Induction of in vitro enzyme activity or messenger ribonucleic acid, CYP1A2 [3]: did not induce
- IC50 [4]: 340 nM
- Inhibition mechanism, CYP3A4 [5]: competitive inhibition
- Ki ([5]; marker substrate midazolam): 810 nM and 805 nM
- IC50 [6]: 85.5 ± 17.5 nM
- Inhibition of the renal OCT2/MATE1/MATE2-K pathway in vivo [7]: weak inhibitor
- Geometric LS mean ratio (90% CI), AUC0-∞ [8]: 0.520 (0.452, 0.597)
- Geometric LS mean ratio (90% CI), AUClast [8]: 0.517 (0.449, 0.596)
- Geometric LS mean ratio (90% CI), Cmax [8]: 0.632 (0.531, 0.753)
